From publication PMC3364214, “Role of Operon aaoSo-mutT in Antioxidant Defense in Streptococcus oligofermentans” (PLoS ONE, 2012)

Target: T1, MutT (Streptococcus cristatus, UniProt A0ABN4B3E2)
T1 construct: gene I872_01330; mutT (453 bp fragment) in NcoI-XhoI of pET-28a, His6-tag fusion (C-terminal by the primers), E. coli BL21(DE3) pLysS, Histrap purified; tag removal not mentioned
T1 sequence (A0ABN4B3E2 1-151): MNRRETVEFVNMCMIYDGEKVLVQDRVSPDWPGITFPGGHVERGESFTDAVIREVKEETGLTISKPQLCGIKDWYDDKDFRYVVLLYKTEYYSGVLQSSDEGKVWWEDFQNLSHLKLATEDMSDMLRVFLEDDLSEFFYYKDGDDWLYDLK
Experiment: HPLC of 8-oxo-dGTP degradation (UV […] nm)
Format: biochemical
Details: 100 uM substrate, 100 nM MutT, 5 mM MgCl2, 100 mM Tris-HCl pH 9.0, 5% glycerol, 37 C, 20 min

## Nc1nc2c([nH]c(=O)n2[C@H]2C[C@H](O)[C@@H](COP(=O)(O)OP(=O)(O)OP(=O)(O)O)O2)c(=O)[nH]1 [8-oxo-dGTP]
  HPLC of 8-oxo-dGTP degradation (UV 293 nm): reduction of 8-oxo-dGTP levels was detected in the reaction mixture by HPLC
